Converted amounts (≈) assume the structure as drawn. Where two headings read alike, the source gives them in different places.
Legend:
in vitro [1] = details: PAMPA
in vitro [2] = details: human, microsomes, pH 7.4
mpox resolvase (Mpr) = mpox resolvase (Mpr) (Monkeypox virus, UniProt A0A7H0DNC1); test: biochemical; format: biochemical
in vitro [3] = details: human, plasma, pH 7.4
in vitro [4] = details: human
VACV-Gluc reporter virus = test: microbe, parasite or virus in culture; format: cell-based, vaccinia virus; details: for EC50: Orthopoxvirus vaccinia, HFF, 24 h, read-out: VACV EC50
physchem = details: pH 7.2, aqueous buffer, kinetic from dmso stock
[5] = microsomes
[6] = pH 7.2
[7] = system: fowlpox virus resolvase (Fpr); details: read-out: Fpr IC50; cited from earlier work

Chain of mpox resolvase (Mpr) (A0A7H0DNC1 whole entry, looked up): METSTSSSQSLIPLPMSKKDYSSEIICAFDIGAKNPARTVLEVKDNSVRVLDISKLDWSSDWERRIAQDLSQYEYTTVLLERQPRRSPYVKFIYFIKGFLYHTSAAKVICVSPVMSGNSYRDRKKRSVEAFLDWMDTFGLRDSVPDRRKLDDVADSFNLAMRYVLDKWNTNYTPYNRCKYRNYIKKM

## O=c1c(-c2ccccc2)c(O)c2cc(-c3ccc(Oc4ccccc4)cc3)cnc2n1O [4a-3, 1,4-dihydroxy-6-(4-phenoxyphenyl)-3-phenyl-1,8-naphthyridin-2(1H)-one]
In vitro [1]
  Papp: 8.6 ± 0.8 ×10⁻⁶ cm/s
In vitro [2]
  half-life: 0.715 ± 0.0117 h
Mpox resolvase (Mpr)
  IC50: 120 ± 10 nM
In vitro [3]
  half-life: > 24 h
In vitro [4]
  CC50: > 250000 nM
VACV-Gluc reporter virus
  SI (selectivity index, CC50 / EC50): >1.9 × 10^2
  EC50: 1300 ± 400 nM
physchem
  solubility: 86 ± 5 µM (≈ 36.3 µg/mL)

## O=c1c(-c2ccccc2)c(O)c2cc(-c3ccccc3)cnc2n1O [4a-5, 1,4-dihydroxy-3,6-diphenyl-1,8-naphthyridin-2(1H)-one]
Mpox resolvase (Mpr)
  IC50: 900 ± 200 nM
In vitro [4]
  CC50: > 250000 nM
VACV-Gluc reporter virus
  SI (selectivity index, CC50 / EC50): >1.0 × 10^2
  EC50: 2400 ± 300 nM

## COc1ccc(-c2cnc3c(c2)c(O)c(-c2ccccc2)c(=O)n3O)cc1F [4a-10, 6-(3-fluoro-4-methoxyphenyl)-1,4-dihydroxy-3-phenyl-1,8-naphthyridin-2(1H)-one]
Mpox resolvase (Mpr)
  IC50: 1600 ± 200 nM
In vitro [4]
  CC50: > 250000 nM
VACV-Gluc reporter virus
  SI (selectivity index, CC50 / EC50): >26
  EC50: 9700 ± 300 nM

## CCc1c(O)c2cc(-c3ccc(-c4ccccc4)cc3)cnc2n(O)c1=O [4b-2, 6-([1,1’-biphenyl]-4-yl)-3-ethyl-1,4-dihydroxy-1,8-naphthyridin-2(1H)-one]
In vitro [1]
  Papp: 3.8 ± 0.1 ×10⁻⁶ cm/s
In vitro [2]
  half-life: > 2 h
Mpox resolvase (Mpr)
  IC50: 360 ± 20 nM
In vitro [3]
  half-life: > 24 h
In vitro [4]
  CC50: > 250000 nM
VACV-Gluc reporter virus
  SI (selectivity index, CC50 / EC50): >6.4 × 10^2
  EC50: 390 ± 10 nM
physchem
  solubility: 1.4 ± 0.1 µM (≈ 0.502 µg/mL)

## CCc1c(O)c2cc(-c3ccc(Oc4ccccc4)cc3)cnc2n(O)c1=O [4b-3, 3-ethyl-1,4-dihydroxy-6-(4-phenoxyphenyl)-1,8-naphthyridin-2(1H)-one]
In vitro [1]
  Papp: 5.2 ± 0.6 ×10⁻⁶ cm/s
In vitro [2]
  half-life: 0.587 ± 0.0133 h
Mpox resolvase (Mpr)
  IC50: 320 ± 60 nM
In vitro [3]
  half-life: > 24 h
In vitro [4]
  CC50: > 250000 nM
VACV-Gluc reporter virus
  SI (selectivity index, CC50 / EC50): >1.5 × 10^2
  EC50: 1600 ± 100 nM
physchem
  solubility: 47 ± 4 µM (≈ 17.6 µg/mL)

## O=c1c(-c2ccccc2)c(O)c2c(-c3cccc(-c4ccccc4)c3)ccnc2n1O [5-1, 5-([1,1’-biphenyl]-3-yl)-1,4-dihydroxy-3-phenyl-1,8-naphthyridin-2(1H)-one]
[5]
  human microsomal stability: excellent human microsomal stability
In vitro [1]
  Papp: 9 ± 1 ×10⁻⁶ cm/s
[6]
  solubility: acceptable solubility
In vitro [2]
  half-life: > 2 h
Mpox resolvase (Mpr)
  IC50: 36 ± 1 nM
  fold improvement in Mpr inhibition over C-6 regioisomer (compound 3 for 5-1): 10 fold
In vitro [3]
  half-life: > 24 h
In vitro [4]
  CC50: 150000 nM
VACV-Gluc reporter virus
  SI (selectivity index, CC50 / EC50): 4.7 × 10^4
  fold better antiviral potency than brincidofovir: 2 fold
  fold improvement in antiviral potency against VACV over compound 3: 400 fold
  EC50: 3.2 ± 0.7 nM
physchem
  solubility: 130 ± 4 µM (≈ 52.8 µg/mL)

## O=c1cc(O)c2c(-c3cccc(-c4ccccc4)c3)ccnc2n1O [5-3, 5-([1,1’-biphenyl]-3-yl)-1,4-dihydroxy-1,8-naphthyridin-2(1H)-one]
Mpox resolvase (Mpr)
  IC50: 15 ± 1 nM
  fold improvement in Mpr inhibition over C-6 regioisomer (compound 3 for 5-1): 10 fold
In vitro [4]
  CC50: > 250000 nM
VACV-Gluc reporter virus
  EC50: 6000 ± 1000 nM

## CSc1ccc(-c2ccnc3c2c(O)cc(=O)n3O)cc1 [5-4, 1,4-dihydroxy-5-(4-(methylthio)phenyl)-1,8-naphthyridin-2(1H)-one]
Mpox resolvase (Mpr)
  IC50: 120 ± 10 nM

## O=c1c(-c2ccccc2)cc2cc(-c3cccc(-c4ccccc4)c3)cnc2n1O [6-1, 6-([1,1’-biphenyl]-3-yl)-1-hydroxy-3-phenyl-1,8-naphthyridin-2(1H)-one]
Mpox resolvase (Mpr)
  IC50: > 50000 nM

## CSc1cccc(-c2cnc3c(c2)cc(-c2ccccc2)c(=O)n3O)c1 [6-2, 1-hydroxy-6-(3-(methylthio)phenyl)-3-phenyl-1,8-naphthyridin-2(1H)-one]
Mpox resolvase (Mpr)
  IC50: > 50000 nM

## CCCCCCCCCCCCCCCCOCCCOP(=O)(O)CO[C@H](CO)Cn1ccc(N)nc1=O [Brincidofovir, brincidofovir, reference compound]
In vitro [4]
  CC50: > 250000 nM
VACV-Gluc reporter virus
  SI (selectivity index, CC50 / EC50): >3 × 10^4
  EC50: 7 ± 4 nM

## O=c1c(-c2ccccc2)c(O)c2cc(-c3cccc(-c4ccccc4)c3)cnc2n1O [compound 3, 6-([1,1’-biphenyl]-3-yl)-1,4-dihydroxy-3-phenyl-1,8-naphthyridin-2(1H)-one]
[5]
  human microsomal stability: excellent human microsomal stability
In vitro [1]
  Papp: 6 ± 2 ×10⁻⁶ cm/s
[6]
  solubility: acceptable solubility
In vitro [2]
  half-life: > 2 h
[7]
  IC50: 300 nM
Mpox resolvase (Mpr)
  IC50: 340 ± 60 nM
In vitro [3]
  half-life: > 24 h
In vitro [4]
  CC50: > 250000 nM
VACV-Gluc reporter virus
  SI (selectivity index, CC50 / EC50): >1.9 × 10^2
  EC50: 1300 ± 300 nM
physchem
  solubility: 130 ± 8 µM (≈ 52.8 µg/mL)

Reference: paper PMC12796986 (Journal of medicinal chemistry, 2025)
